Experimental data from PMC7692337, “Masked Phenolic-Selenium Conjugates: Potent and Selective Antiproliferative Agents Overcoming P-gp Resistance” (Pharmaceuticals, 2020).
Where two headings read alike, the source gives them in different places.

Tests used:
[1] = Free radical scavenging (DPPH method); settings: 30 min incubation, absorbance at 515 nm; for EC50: read-out: EC50 antiradical activity (DPPH)
Description: (§1) In vitro antioxidant properties of key unprotected phenolic derivatives were analyzed using two different methodologies: free radical scavenging capacity, using the DPPH method (2,2-diphenyl-1-picrylhydrazyl), a HAT (hydrogen atom transfer) procedure, widely-used for both natural and synthetic derivatives, and also the capacity for scavenging H2O2, one of the most common ROS in degenerative diseases, including cancer.
DPPH is a commercially-available stable free radical commonly used for in vitro testing of radical scavenging properties of antioxidants.
Reported methodology was used with minor modifications. To a 60 µM methanolic DPPH solution (1.17 mL), the antioxidant solution (5–7 different solutions, 30 µL) or solvent (control, 30 µL) were added. After 30 min. of incubation in the dark, absorbance was measured at 515 nm, and EC50 values were calculated.

[2] = H2O2 scavenging (phenol red / horseradish peroxidase); settings: At 50 µM
Description: as §1
Herein, following Bahorun’s methodology, in vitro levels of H2O2 were measured in an indirect fashion, by registering the H2O2-mediated oxidation of phenol red in the presence of horseradish peroxidase, to give a chromophore with a maximum absorption at 610 nm. Accordingly, in the presence of an antioxidant agent, there is an inverse correlation between the observed absorbance, and the scavenging properties. Table 2 depicts the H2O2-scavenging properties of compounds prepared herein, and tested at a final 50 µM concentration.
Reported methodology was used with minor modifications.

[3] = system: six human tumour cell lines (A549, HBL-100, HeLa, SW1573, T-47D, WiDr); assay: Antiproliferative activity, panel of six human tumour cell lines; type: cell-based
Description: (§2) Organochalcogen derivatives prepared herein were evaluated in vitro as potential antiproliferative agents, using a panel of six human tumour cell lines: A549 (non-small cell lung), HBL-100 (breast), HeLa (cervix), SW1573 (non-small cell lung), as drug sensitive lines, T-47D (breast) and WiDr (colon) as drug resistant lines. In addition to precursors 2, 6, 7, 13, 14, 17, 19, ebselen and cisplatin (CDDP) were used as reference drugs. […] In both cases, the NCI protocol, with minor modifications, was followed; selected data, including the selectivity index (S.I.) can be found in Table 3 and full data in Supporting Information (Table S1).
(§3) The in vitro antiproliferative activity was assayed using minor modifications of the protocol of the National Cancer Institute (NCI) of the United States against the six human solid tumor cell and the non-tumor cell lines tested.

[4] = system: SW1573; assay: P-glycoprotein assay, wild type line; type: cell-based; settings: Homo sapiens, 48 h exposure
Description: (§4) This assay allows prediction of whether a certain chemotherapeutic agent could develop chemoresistance when behaving as a P-gp substrate, one of the most common efllux-pumps used for the extrusion of cell xenobiotics. For that purpose, a cell line-based assay was used, in particular the lung cancer cell line in its wild type (SW1573), and its variant overexpressing P-gp (Sw1573/Pgp). Moreover, compounds were tested in the presence and in the absence of verapamil, which is known to inhibit P-gp. Chemotherapeutic agents paclitaxel (PTX) and vinblastine (VB) are used herein as reference compounds. In this assay, the resistance factor (Rf) for a certain compound is defined as the ratio of GI50 in the cell line overexpressing P-gp and the wild one (Table 4), high values of Rf denoting that the compound behaves as a P-gp substrate, and thus, chemoresistance through this mechanism will probably take place.

[5] = system: HBL-100 (breast); assay: Antiproliferative activity, NCI protocol; type: cell-based, human
Description: as §2, §3

[6] = system: HeLa (cervix); assay: Antiproliferative activity, NCI protocol; type: cell-based, human
Description: as §2, §3

[7] = system: T-47D (breast); assay: Antiproliferative activity, NCI protocol; type: cell-based, human; settings: Homo sapiens, T47D, read-out: GI50 T-47D (Breast)
Description: as §2, §3

[8] = system: WiDr (colon); assay: Antiproliferative activity, NCI protocol; type: cell-based, human; settings: Homo sapiens, WiDr, read-out: GI50 WiDr (Colon)
Description: as §2, §3

[9] = system: A549 (non-small cell lung); assay: Antiproliferative activity, NCI protocol; type: cell-based, human
Description: as §2, §3

[10] = system: SW1573 (non-small cell lung); assay: Antiproliferative activity, NCI protocol; type: cell-based, human; settings: Homo sapiens
Description: as §2, §3

[11] = system: BJ-hTert (fibroblasts); assay: Antiproliferative activity on non-tumour cells, NCI protocol; type: cell-based, human; settings: Homo sapiens, Fibroblast, read-out: GI50 BJ-hTert (Fibroblasts)
Description: as §2, §3

[12] = system: SW1573/Pgp; assay: P-glycoprotein assay, line overexpressing P-gp; type: cell-based, human; settings: ratio between GI50 values in SW1573/PGP and SW1573 cells
Description: as §4

[13] = P-glycoprotein assay, line overexpressing P-gp; type: cell-based, human; settings: human, 48 h exposure
Description: as §4

c1cc2c(cc1C[Se][Se]Cc1ccc3c(c1)OCO3)OCO2 [Compound 39, Bis[(3’, 4’-methylenedioxyphenyl)methyl]diselenide]
EC50 antiradical activity (DPPH) [1]: complete impairment of activity
EC50 [1]: > 250 µM
% Scavenging of H2O2 [2]: complete loss of ROS scavenging properties and ---
GI50 over the tumour cell lines (range, bound or words) ([3]; summary over the tested tumour cell lines, highest tested concentration 100 µM): low micromolar‒submicromolar activities
GI50 ([4]; with verapamil, read-out: GI50 SW153 w Verapamil): 2500 ± 100 nM
GI50 ([4]; without verapamil, read-out: GI50 SW1573 w/o Verapamil): 3000 ± 500 nM
GI50 ([5]; Homo sapiens, HBL-100; read-out: GI50 HBL-100 (Breast)): 2900 ± 600 nM
GI50 ([6]; Homo sapiens, HeLa; read-out: GI50 HeLa (Cervix)): 2400 ± 1400 nM
GI50 ([7]; drug resistant line): 2900 ± 400 nM
GI50 ([8]; drug resistant line): 1600 ± 300 nM
GI50 ([9]; Homo sapiens, A549; read-out: GI50 A549 (Lung)): 1200 ± 300 nM
GI50 ([10]; SW1573, Table S1, read-out: GI50 SW1573 (Lung)): 3200 ± 900 nM
GI50 ([11]; non-tumour cell line): 3900 ± 1000 nM
Rf w Verapamil ([12]; with verapamil): 2.0
Rf w/o Verapamil ([12]; without verapamil): 6.0
GI50 at 48 h ([13]; with verapamil (concentration not stated), with verapamil, read-out: GI50 SW1573/PGP w Verapamil): 5.1 ± 0.4 µM
GI50 at 48 h ([13]; without verapamil, read-out: GI50 SW1573/PGP w/o Verapamil): 18 ± 0.1 µM

O=C(CCC[Se][Se]CCCC(=O)NCCc1ccc2c(c1)OCO2)NCCc1ccc2c(c1)OCO2 [Compound 46, 4,4’-Diselenobis{N-[2′’-(3′’’,4′’’-Methylenedioxyphenyl)ethyl]butanamide}]
EC50 antiradical activity (DPPH) [1]: complete impairment of activity
EC50 [1]: > 250 µM
% Scavenging of H2O2 [2]: complete loss of ROS scavenging properties and ---
fold improvement of potency against tumour cell lines compared to 16 ([3]; 46 (acetal) versus 16 (free catechol)): up to 30 fold
GI50 ([3]; Homo sapiens, read-out: GI50 over the tumour cell lines (range, bound or words)): 120 to 300 nM
fold increase in activity compared to CDDP ([3]; multidrug resistant cell lines (T-47D, WiDr)): ≤ 104 fold
GI50 ([5]; Homo sapiens, HBL-100, read-out: GI50 HBL-100 (Breast)): 250 ± 20 nM
GI50 ([6]; Homo sapiens, HeLa, read-out: GI50 HeLa (Cervix)): 120 ± 10 nM
GI50 [7]: 190 ± 40 nM
GI50 [8]: 250 ± 60 nM
GI50 ([9]; Homo sapiens, A549, read-out: GI50 A549 (Lung)): 270 ± 20 nM
GI50 ([10]; SW1573, read-out: GI50 SW1573 (Lung)): 300 ± 30 nM
GI50 [11]: 1000 ± 100 nM
